Measured values as given in patent publication US8633207B2, “Quinazoline compounds and methods of use thereof” (Ambit Biosciences Corporation, priority 2010, dated 2014).

Key:
[1] = molecular target: T1, Tyk2 (Homo sapiens, UniProt P29597); test: Competition binding assay to determine Kd against JAK kinases: Tyk2
T1 construct: made in house; host or cells: T7 phage display, or HEK-293 cells (alternative)
Text: (§1) Competition Binding Assay to Determine Binding Constants (Kd) of the Compounds Against JAK Kinases
(§2) Competition binding assays used herein were developed, validated and performed as described in Fabian et al., Nature Biotechnology 2005, 23, 329-336. Kinases were produced as fusions to T7 phage (See, Fabian et al. or WO04/015142) or alternatively, the kinases were expressed in HEK-293 cells and subsequently tagged with DNA for PCR detection (See, WO08/005,310). For the binding assays, streptavidin-coated magnetic beads were treated with biotinylated affinity ligands for 30 min at rt to generate affinity resins. The liganded beads were blocked with excess biotin and washed with blocking buffer (SeaBlock (Pierce), 1% BSA, 0.05% Tween 20, 1 mM DTT) to remove unbound ligand and to reduce non-specific binding. Binding reactions were assembled by combining kinase, liganded affinity beads, and test compounds in 1× binding buffer (20% SeaBlock, 0.17×PBS, 0.05% Tween 20, 6 mM DTT). Test compounds were prepared as 100× stocks in DMSO and rapidly diluted into the aqueous environment. DMSO was added to control assays lacking a test compound. Primary screen interactions were performed in polypropylene 384-well plates in a final volume of 34 μL, while Kd determinations were performed in polystyrene 96-well plates in a final volume of 135 μL. The assay plates were incubated at room temperature with shaking for 1 hour, long enough for binding reactions to reach equilibrium, and the affinity beads were washed extensively with wash buffer (1×PBS, 0.05% Tween 20) to remove unbound protein. The beads were then resuspended in elution buffer (1×PBS, 0.05% Tween 20, 2 μM non-biotinylated affinity ligand) and incubated at room temperature with shaking for 30 min. The kinase concentration in the eluates was measured by quantitative PCR. Each kinase was tested individually against each compound. Kds were determined using eleven serial threefold dilutions. A selectivity score, which is a quantitative measure of selectivity of a compound against a panel of enzymes, may be calculated for a compound by dividing the number of enzymes for which a compound meets a set criteria, (for example, a binding constant of 100 nM or less), by the total number of enzymes tested.

[2] = molecular target: T2, JAK3 (Homo sapiens, UniProt P52333); test: Competition binding assay to determine Kd against JAK kinases: JAK3
T2 construct: made in house; host or cells: T7 phage display, or HEK-293 cells (alternative)
T2 sequence (P52333 1-1124): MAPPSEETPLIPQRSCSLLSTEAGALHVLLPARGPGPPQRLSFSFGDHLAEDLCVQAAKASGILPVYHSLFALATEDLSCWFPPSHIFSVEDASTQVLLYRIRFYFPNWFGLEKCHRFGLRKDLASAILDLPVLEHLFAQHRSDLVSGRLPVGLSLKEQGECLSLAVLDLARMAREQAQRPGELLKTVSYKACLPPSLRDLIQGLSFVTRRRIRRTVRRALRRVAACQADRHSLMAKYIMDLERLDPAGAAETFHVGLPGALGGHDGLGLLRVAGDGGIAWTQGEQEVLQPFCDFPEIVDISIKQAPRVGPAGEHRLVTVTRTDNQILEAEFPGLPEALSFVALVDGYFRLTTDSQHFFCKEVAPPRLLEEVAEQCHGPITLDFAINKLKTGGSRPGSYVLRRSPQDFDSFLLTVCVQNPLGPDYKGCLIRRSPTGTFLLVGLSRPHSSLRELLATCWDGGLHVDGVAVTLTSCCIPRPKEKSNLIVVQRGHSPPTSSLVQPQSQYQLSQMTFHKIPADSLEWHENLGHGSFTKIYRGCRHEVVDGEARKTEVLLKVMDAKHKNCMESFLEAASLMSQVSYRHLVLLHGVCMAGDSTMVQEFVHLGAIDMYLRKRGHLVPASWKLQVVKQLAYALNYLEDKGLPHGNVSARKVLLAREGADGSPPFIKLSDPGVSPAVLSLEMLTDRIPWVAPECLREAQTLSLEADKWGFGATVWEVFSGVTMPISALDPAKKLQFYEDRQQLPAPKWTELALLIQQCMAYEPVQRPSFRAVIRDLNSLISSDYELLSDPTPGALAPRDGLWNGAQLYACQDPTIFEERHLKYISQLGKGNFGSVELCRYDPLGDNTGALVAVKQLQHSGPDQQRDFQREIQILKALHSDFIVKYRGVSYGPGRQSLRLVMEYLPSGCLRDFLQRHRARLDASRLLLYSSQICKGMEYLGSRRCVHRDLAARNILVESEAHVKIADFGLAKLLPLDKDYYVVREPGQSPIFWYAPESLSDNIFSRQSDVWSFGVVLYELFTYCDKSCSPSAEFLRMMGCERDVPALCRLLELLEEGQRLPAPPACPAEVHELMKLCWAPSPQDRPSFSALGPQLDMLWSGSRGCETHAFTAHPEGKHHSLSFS
Text: as §1, §2

[3] = molecular target: T3, JAK2 (Homo sapiens, UniProt O60674); test: Competition binding assay to determine Kd against JAK kinases: JAK2
T3 construct: made in house; host or cells: T7 phage display, or HEK-293 cells (alternative)
Text: as §1, §2

[4] = system: GM-CSFR/JAK2/STAT5 pathway; test: csTF-1 cell-based reporter assay; details: Homo sapiens; csTF-1 cells, GM-CSF at 2 ng/mL, 4 hours; read-out: Cell Assay: CS TF-1 reporter assay IC50
Method: csTF-1 Cell-Based Reporter Assay
csTF-1 cells are derived from the human erythroleukemia cell line that is growth dependent on GM-CSF and has an intact GM-CSFR/JAK2/STAT5 pathway. The cell line contains stably integrated beta-lactamase reporter gene under the control of the […] (irf 1) response element recognized by the activated transcription factor STATS. csTF-1 cells (Invitrogen K1219) were washed with assay media (97% OPTIMEM/0.5% dialyzed FBS/0.1 mM NEAA/1 mM Na pyr/P/S) and seeded in the same media at 5×10^5 cell/mL in T150 flask. After 16 hour incubation, cells were seeded at 2×10^5 cell/well in 50 μl volume, into Costar, clear bottom, 96-well assay plates. Serial dilutions of compounds were added to the plates with final DMSO concentration at 0.5% and GM-CSF at 2 ng/mL and the plates were then incubated at […] and 5% CO2 for 4 hours. The plates were brought to room temperature before adding Substrate Mixture according to manufacturer's protocol (Invitrogen, Catalog #K1085). The assay plates containing the substrate mixture were incubated in the dark at room temperature for 2 hours. Blue and green fluorescence was measured with excitation at 409 nm and emission at 460 nm (for blue) and excitation at 409 nm and emission at 530 nm (for green) using Spectra Max Gemini EM.

T1 sequence (P29597 whole entry): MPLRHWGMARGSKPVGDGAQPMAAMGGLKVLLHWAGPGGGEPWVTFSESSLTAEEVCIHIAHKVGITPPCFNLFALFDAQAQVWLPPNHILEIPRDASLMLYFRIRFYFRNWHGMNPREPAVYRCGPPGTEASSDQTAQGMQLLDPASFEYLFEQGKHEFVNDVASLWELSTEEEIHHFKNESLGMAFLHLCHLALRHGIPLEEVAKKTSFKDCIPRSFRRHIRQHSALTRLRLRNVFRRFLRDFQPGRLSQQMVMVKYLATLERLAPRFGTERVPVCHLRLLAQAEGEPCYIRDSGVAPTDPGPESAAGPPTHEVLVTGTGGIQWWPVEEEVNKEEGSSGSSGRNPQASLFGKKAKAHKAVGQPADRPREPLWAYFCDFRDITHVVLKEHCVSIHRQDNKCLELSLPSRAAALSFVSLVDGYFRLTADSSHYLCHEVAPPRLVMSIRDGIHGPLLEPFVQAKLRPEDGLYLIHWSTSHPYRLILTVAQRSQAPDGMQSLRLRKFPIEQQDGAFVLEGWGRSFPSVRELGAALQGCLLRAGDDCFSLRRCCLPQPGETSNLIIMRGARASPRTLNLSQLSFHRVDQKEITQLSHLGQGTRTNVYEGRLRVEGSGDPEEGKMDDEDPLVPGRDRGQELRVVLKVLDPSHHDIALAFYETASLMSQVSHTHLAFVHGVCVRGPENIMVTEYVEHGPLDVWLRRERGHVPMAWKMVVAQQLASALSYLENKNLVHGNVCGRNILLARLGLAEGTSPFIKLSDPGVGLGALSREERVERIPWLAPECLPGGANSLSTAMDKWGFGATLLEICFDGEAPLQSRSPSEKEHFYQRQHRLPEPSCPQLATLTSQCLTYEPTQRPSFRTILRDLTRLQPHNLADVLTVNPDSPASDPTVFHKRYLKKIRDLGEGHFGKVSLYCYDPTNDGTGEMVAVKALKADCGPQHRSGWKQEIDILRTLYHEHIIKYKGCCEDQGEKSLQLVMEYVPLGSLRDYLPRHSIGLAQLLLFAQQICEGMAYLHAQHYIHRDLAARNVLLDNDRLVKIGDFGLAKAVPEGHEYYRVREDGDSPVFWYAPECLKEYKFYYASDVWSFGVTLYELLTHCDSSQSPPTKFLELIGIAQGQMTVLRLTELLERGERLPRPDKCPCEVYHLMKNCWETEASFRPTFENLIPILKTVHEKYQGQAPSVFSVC
T3 sequence (O60674 whole entry): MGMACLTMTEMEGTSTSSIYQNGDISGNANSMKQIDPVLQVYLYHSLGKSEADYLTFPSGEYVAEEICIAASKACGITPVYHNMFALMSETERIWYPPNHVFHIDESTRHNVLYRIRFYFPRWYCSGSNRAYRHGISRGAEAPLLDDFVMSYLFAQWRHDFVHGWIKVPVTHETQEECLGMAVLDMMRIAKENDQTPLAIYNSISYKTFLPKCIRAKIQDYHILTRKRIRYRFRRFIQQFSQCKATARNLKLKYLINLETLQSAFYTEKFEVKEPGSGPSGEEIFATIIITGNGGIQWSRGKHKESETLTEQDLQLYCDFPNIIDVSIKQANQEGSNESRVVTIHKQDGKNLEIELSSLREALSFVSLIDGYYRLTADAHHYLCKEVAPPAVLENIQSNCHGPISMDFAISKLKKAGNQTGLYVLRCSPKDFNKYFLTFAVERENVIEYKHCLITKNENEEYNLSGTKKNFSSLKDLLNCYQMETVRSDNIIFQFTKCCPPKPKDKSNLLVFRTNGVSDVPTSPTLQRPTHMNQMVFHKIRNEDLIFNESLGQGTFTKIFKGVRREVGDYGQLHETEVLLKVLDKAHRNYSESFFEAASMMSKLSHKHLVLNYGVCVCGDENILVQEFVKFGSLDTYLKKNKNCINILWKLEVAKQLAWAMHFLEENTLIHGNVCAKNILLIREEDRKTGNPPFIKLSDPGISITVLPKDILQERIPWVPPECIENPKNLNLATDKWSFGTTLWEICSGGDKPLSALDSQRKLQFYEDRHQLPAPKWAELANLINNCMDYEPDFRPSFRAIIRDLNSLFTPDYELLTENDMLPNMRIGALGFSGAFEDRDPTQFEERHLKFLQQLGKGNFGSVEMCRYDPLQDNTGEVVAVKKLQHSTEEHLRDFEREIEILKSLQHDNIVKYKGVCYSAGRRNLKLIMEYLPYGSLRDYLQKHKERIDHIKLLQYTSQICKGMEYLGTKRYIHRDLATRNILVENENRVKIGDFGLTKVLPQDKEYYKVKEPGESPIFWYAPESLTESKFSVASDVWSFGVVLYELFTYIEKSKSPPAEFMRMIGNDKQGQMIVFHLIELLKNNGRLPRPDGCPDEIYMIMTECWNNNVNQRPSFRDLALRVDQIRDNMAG

SMILES | Kd [1] [nM] | Kd [2] [nM] | Kd [3] [nM] | IC50 [4] [nM]
Cc1cnc(Nc2nc(C(F)(F)c3ccc(F)cn3)nc3ccccc23)s1 [Example 30, N-(2-(difluoro(5-fluoropyridin-2-yl)methyl)quinazolin-4-yl)-5-methylthiazol-2-amine] | 10 to 100 | > 100 | 1 to 10 | 100 to 500
Fc1ccc(C(F)(F)c2nc(Nc3nc[nH]n3)c3ccccc3n2)nc1 [Example 31, 2-(difluoro(5-fluoropyridin-2-yl)methyl)-N-(1H-1,2,4-triazol-3-yl)quinazolin-4-amine] | 10 to 100 | > 100 | > 10 | > 500
Cc1cc(Nc2nc(C(F)(F)c3ccc(F)cn3)nc3c(C(F)(F)F)cccc23)n[nH]1 [Example 33, 2-(difluoro(5-fluoropyridin-2-yl)methyl)-N-(5-methyl-1H-pyrazol-3-yl)-8-(trifluoromethyl)quinazolin-4-amine] | 10 to 100 | > 100 | 1 to 10 | 100 to 500
Cc1cc(Nc2nc(C(F)(F)c3ccc(F)cn3)nc3c(OC(F)(F)F)cccc23)n[nH]1 [Example 34, 2-(difluoro(5-fluoropyridin-2-yl)methyl)-N-(5-methyl-1H-pyrazol-3-yl)-8-(trifluoromethoxy)quinazolin-4-amine] | ≤ 10 | 10 to 100 | 1 to 10 | 100 to 500
Cc1cc(Nc2nc(C(F)(F)c3ccc(F)cn3)nc3c(C#N)cccc23)n[nH]1 [Example 35, 2-(difluoro(5-fluoropyridin-2-yl)methyl)-4-((5-methyl-1H-pyrazol-3-yl)amino)quinazoline-8-carbonitrile] | ≤ 10 | 10 to 100 | ≤ 1 | 100 to 500
CCc1cccc2c(Nc3cc(C)[nH]n3)nc(C(F)(F)c3ccc(F)cn3)nc12 [Example 36, 2-(difluoro(5-fluoropyridin-2-yl)methyl)-8-ethyl-N-(5-methyl-1H-pyrazol-3-yl)quinazolin-4-amine] | ≤ 10 | 10 to 100 | ≤ 1 | 100 to 500
Cc1cc(Nc2nc(C(F)(F)c3ccc(F)cn3)nc3c(S(C)(=O)=O)cccc23)n[nH]1 [Example 37, 2-(difluoro(5-fluoropyridin-2-yl)methyl)-N-(5-methyl-1H-pyrazol-3-yl)-8-(methylsulfonyl)quinazolin-4-amine] | ≤ 10 | 10 to 100 | 1 to 10 | 100 to 500
Cc1cc(Nc2nc(C(F)(F)c3ccc(F)cn3)nc3cc(S(C)(=O)=O)ccc23)n[nH]1 [Example 38, 2-(difluoro(5-fluoropyridin-2-yl)methyl)-N-(5-methyl-1H-pyrazol-3-yl)-7-(methylsulfonyl)quinazolin-4-amine] | ≤ 10 | ≤ 10 | ≤ 1 | 100 to 500
Cc1cc(Nc2nc(C(F)(F)c3ccc(F)cn3)nc3c(C(N)=O)cccc23)n[nH]1 [Example 39, 2-(difluoro(5-fluoropyridin-2-yl)methyl)-4-((5-methyl-1H-pyrazol-3-yl)amino)quinazoline-8-carboxamide] | ≤ 10 | ≤ 10 | ≤ 1 | ≤ 100
Cc1cc(Nc2nc(C(F)(F)c3ncc(F)cn3)nc3c(Cl)cccc23)n[nH]1 [Example 40, 8-chloro-2-(difluoro(5-fluoropyrimidin-2-yl)methyl)-N-(5-methyl-1H-pyrazol-3-yl)quinazolin-4-amine] | ≤ 10 | 10 to 100 | ≤ 1 | ≤ 100
Cc1cc(Nc2nc(C(F)(F)c3ccc(F)cn3)nc3cc(C(N)=O)ccc23)n[nH]1 [Example 41, 2-(difluoro(5-fluoropyridin-2-yl)methyl)-4-((5-methyl-1H-pyrazol-3-yl)amino)quinazoline-7-carboxamide] | ≤ 10 | ≤ 10 | ≤ 1 | > 500
Cc1cc(Nc2nc(C(F)(F)c3ccc(F)cn3)nc3c(N4CCOCC4=O)cccc23)n[nH]1 [Example 42, 4-(2-(difluoro(5-fluoropyridin-2-yl)methyl)-4-((5-methyl-1H-pyrazol-3-yl)amino)quinazolin-8-yl)morpholin-3-one] | ≤ 10 | ≤ 10 | ≤ 1 | 100 to 500
COc1cccc2c(Nc3cc(C)[nH]n3)nc(C(F)(F)c3ccc(F)cn3)nc12 [Example 43, 2-(difluoro(5-fluoropyridin-2-yl)methyl)-8-methoxy-N-(5-methyl-1H-pyrazol-3-yl)quinazolin-4-amine] | ≤ 10 | ≤ 10 | ≤ 1 | ≤ 100
Cc1cc(Nc2nc(C(F)(F)c3ccc(F)cn3)nc3c(NC=O)cccc23)n[nH]1 [Example 44, N-(2-(difluoro(5-fluoropyridin-2-yl)methyl)-4-((5-methyl-1H-pyrazol-3-yl)amino)quinazolin-8-yl)formamide] | ≤ 10 | ≤ 10 | ≤ 1 | ≤ 100
Cc1cc(Nc2nc(C(F)(F)c3ccc(F)cn3)nc3c(C(=O)NC4COC4)cccc23)n[nH]1 [Example 45, 2-(difluoro(5-fluoropyridin-2-yl)methyl)-4-((5-methyl-1H-pyrazol-3-yl)amino)-N-(oxetan-3-yl)quinazoline-8-carboxamide] | ≤ 10 | ≤ 10 | ≤ 1 | ≤ 100
Cc1cc(Nc2nc(C(F)(F)c3ccc(F)cn3)nc3c(O)cccc23)n[nH]1 [Example 46, 2-(difluoro(5-fluoropyridin-2-yl)methyl)-4-((5-methyl-1H-pyrazol-3-yl)amino)quinazolin-8-ol] | ≤ 10 | ≤ 10 | ≤ 1 | > 500
